Test results from patent publication US12384745B2, “Crystal form of five-membered n heterocyclic compound, and application thereof” (CHIA TAI TIANQING PHARMACEUTICAL GROUP CO., LTD., priority 2019, dated 2025).

Columns and labels:
[1] = Stability assay of crystalline form (influential factors); type: physicochemical
Protocol: 1.1. Preparation of Samples
500 mg of the crystalline form A of the compound of formula I prepared in Example 2 was placed in a dry and clean container, and evenly spread in a thin layer as the test sample. The sample was completely exposed to experimental conditions of influential factors (40° C., 60° C., 75% RH, 92.5% RH, high temperature and high humidity (40° C., 75% RH)). Samples were taken for analysis on day 10. The samples were completely exposed to illumination (visible light of 1,200,000 Lux·hr, UV of 216 W·hr/m^2) at room temperature.
1.2. Chromatographic Conditions
Chromatographic column: Waters XBridge Shield RP18 (4.6 mm×150 mm, 3.5 μm).
The water content was measured by a Mettler V20 system.
1.3. Preparation of Sample Solution
About 12.5 mg of the sample was dissolved with an appropriate amount of a mixed diluent of acetonitrile-water (70:30) for content assay of related substance.

[2] = In vitro stability in human liver microsomes; type: in vitro ADME
Protocol: (§1) Experimental Example 3. In Vitro Stability in Liver Microsome A final incubation system of 300 μL contained 30 μL of liver microsomes (protein concentration: 0.15 mg/mL, Corning), 30 μL of NADPH+MgCl2, 3 μL of substrate (in acetonitrile) and 237 μL of PBS. Samples were prepared in duplicate of 0.3 mL for each specie. For each tube, the 270 μL mixed solution of substrates and enzyme and the NADPH solution were separately pre-incubated at 37° C. for 5 min. The 30 μL mixed solution of NADPH+MgCl2 was added for reaction. 50-μL samples were taken at 0 min, 10 min, 30 min and 60 min, and 300 μL of glacial acetonitrile containing an internal standard was added to the samples to terminate the reaction. Sample pretreatment: 300 μL of glacial acetonitrile containing internal standard diazepam was added to 50 μL of the incubated sample for precipitation. The mixture was vortexed for 5 min, and centrifuged (12000 rpm, 4° C.) for 10 min. 75 μL of supernatant was added to a 96-well plate and diluted with 75 μL of ultrapure water. After being mixed well, 0.5 μL of the resulting sample was injected to a LC-MS/MS system for analysis.

HBV DNA in HepAD38 cells = experiment: In-vitro inhibitory activity against HBV DNA in HepAD38 cells; type: cell-based; conditions: Hepatitis B virus, 144 h, 6 days treatment, intracellular capsid HBV DNA by qPCR, read-out: EC50, anti-HBV activity
Protocol: (§2) 2.1. In-vitro Inhibitory Activity Against HBV DNA in Cells
(§3) A vial of HepG2.2.15 cells (Wuhan Institute of Virology) or HepAD38 cells in good condition and at logarithmic growth phase was washed once with 5 mL of PBS. 3 mL of pancreatin was added. The cells were digested at room temperature for 5 min, then 2 mL of pancreatin was discarded. The cells were further digested in a cell incubator for 10 min, and observed under a microscope (whether the cells are round in shape, and whether the cells are separated or adhered). 10 mL of complete medium was added to terminate the digestion. The cells was mixed using a pipette to obtain a single cell suspension. 10 μL of the cell suspension was loaded on a cell counter for counting, and diluted with the complete medium to adjust the cell density to 1×10^5 cells/mL. The cells were seeded on a 24-well plate (pre-coated with 50 μg/mL Collagen I solution) at 1 mL/well using a multi-channel pipette and cultured in a thermostatic CO2 incubator for 48 h.
(§4) A solution of the compound dissolved in DMSO was diluted to 10 concentrations in a 2-fold gradient using complete medium. […] HBV DNA in the intracellular viral capsid was measured by real-time fluorescent quantitative PCR. The inhibition rate was calculated according to the Ct value, and the EC50 value was calculated by four-parameter fitting.

[3] = tested on: HBV DNA in HepG2.2.15 cells; experiment: In-vitro inhibitory activity against HBV DNA in HepG2.2.15 cells; type: cell-based; conditions: Hepatitis B virus, 144 h, 6 days treatment, intracellular capsid HBV DNA by qPCR, read-out: EC50, anti-HBV activity
Protocol: as §2, §3, §4

[4] = Pharmacokinetic (PK) study in rats; type: in vivo; conditions: SD rats, PO 10 mg/kg vs IV 5 mg/kg
Protocol: Pharmacokinetic (PK) Study in Rats […]
The animals to be tested (SD rats) were fasted for 12 h before administration and fed 4 h after administration, and had free access to water before, after and during the experiment.
After administration, about 0.2 mL of blood was collected from the orbit at 0 min, 15 min, 30 min, 1 h, 2 h, 4 h, 6 h, 8 h, 10 h, 24 h, 30 h and 48 h. After anticoagulation with EDTA-K2, the blood samples were transferred to a centrifuge at 4° C. within 30 min and centrifuged at 4000 rpm for 10 min to separate the plasma. All the plasma samples were collected and immediately stored at −20° C. for testing.
50 μL of the plasma sample to be tested and standard curve sample were taken, and 500 μL of acetonitrile solution containing an internal standard (20 mg/mL diazepam) was added. The reaction system was shaken for 5 min and centrifuged at 12,000 rpm for 10 min. 75 μL of supernatant was taken and diluted with 75 μL of ultrapure water. After being mixed well, 1 μL of the resulting sample was taken for LC/MS/MS analysis.

[5] = Plasma protein binding assay, dog plasma; type: in vitro ADME
Protocol: (§5) 2.4. Plasma Protein Binding Assay
(§6) Preparation of plasma samples: 5 μL of test compound solution or positive control was added to 495 μL of blank plasma of various species (mouse, rat, dog, monkey and human) to obtain plasma sample solutions at plasma concentrations of 1 μM and 10 μM (in acetonitrile).
(§7) The pretreated dialysis membrane was loaded on a high-throughput equilibrium dialysis system. 100 μL of the plasma sample solution and PBS buffer were added to the two sides (sample side and buffer side) of the dialysis membrane respectively (n=3). The system was sealed with a patch and incubated at 37° C. overnight (100 rpm) to achieve dialysis equilibrium. 50 μL samples were taken from the sample side and the buffer side, and the reaction was terminated with glacial acetonitrile containing an internal standard.
(§8) Sample pretreatment: 450 μL of glacial acetonitrile containing an internal standard was added to 50 μL of the sample from the plasma side for precipitation. The mixture was vortexed for 5 min, and centrifuged (12000 rpm, 4° C.) for 10 min. 75 μL of supernatant was taken and diluted with 75 μL of ultrapure water. After being mixed well, 1 μL of the resulting sample was injected for analysis; 250 μL of glacial acetonitrile containing an internal standard was added to 50 μL of the sample from the PBS side for precipitation. […]

[6] = Plasma protein binding assay, monkey plasma; type: in vitro ADME
Protocol: as §5, §6, §7, §8

[7] = Plasma protein binding assay, human plasma; type: in vitro ADME
Protocol: as §5, §6, §7, §8

[8] = Plasma protein binding assay, rat plasma; type: in vitro ADME
Protocol: as §5, §6, §7, §8

[9] = In vitro stability in mouse liver microsomes; type: in vitro ADME
Protocol: as §1

[10] = Plasma protein binding assay, mouse plasma; type: in vitro ADME
Protocol: as §5, §6, §7, §8

[11] = In vitro stability in rat liver microsomes; type: in vitro ADME
Protocol: as §1

HepG2.2.15 cells = experiment: In vitro cytotoxicity (CCK-8); type: cell-based; conditions: 6 days treatment
Protocol: 2.2. In Vitro Cytotoxicity
A vial of HepG2.2.15 cells (Wuhan Institute of Virology) in good condition and at logarithmic growth phase was washed once with 5 mL of PBS. 2 mL of pancreatin was added. The cells were incubated in a cell incubator for digestion, and observed at times under a microscope. 1 mL of pancreatin was discarded when the cells just fell off, leaving the residual liquid only. The cells were further incubated in the incubator at 37° C. for 8-15 min of digestion and observed under a microscope (whether the cells are round in shape, and whether the cells are separated or adhered). 5 mL of MEM medium was added for cell resuspension. The cell suspension was loaded on a cell counter for counting, and diluted with the complete medium to adjust the cell density to 2×10^5 cells/mL. The cells were seeded on a 96-well plate (pre-coated with 50 μg/mL Collagen I solution) at 100 μL/well using a multi-channel pipette and cultured in a thermostatic CO2 incubator for 24 h. The compound was added, and the medium containing the compound was refreshed every 3 days. A medium containing 0.5% of DMSO but no compound was added to the control wells, and control wells of basal medium were set. After 6 days of treatment, CCK-8 was added at 10 μL/well, and after 1-2 h, the absorbance at 450 nm was measured with a plate reader. The inhibition rate and CC50 were calculated.

[12] = High humidity (75% RH), 10 days
[13] = High humidity (92.5% RH), 10 days
[14] = High temperature (40° C.), 10 days
[15] = High temperature (60° C.), 10 days
[16] = High temperature and high humidity (40° C., 75% RH), 10 days

Q: For `Cc1[nH]c(C(=O)C(=O)N[C@@H](C)C(F)(F)F)c(C)c1C(=O)Nc1ccc(F)c(C#N)c1` [(S)-N-(3-cyano-4-fluorophenyl)-2,4-dimethyl-5-(2-oxo-2-((1,1,1-trifluoropropan-2-yl)amino)acetyl)-1H-pyrrol-3-formamide], which “Related substance (total impurities)” value ([1]; Day 0) is on record?
A: The value was 0.57%.

Q: What about the Water ([1]; Day 0) of the same compound?
A: The Water was 0.13%.

Q: What about the “Related substance (total impurities)” value [1, 12] of the same compound?
A: The value was 0.63%.

Q: And the Water [1, 12]?
A: Its Water is 0.15%.

Q: And the “Related substance (total impurities)” value [1, 13]?
A: Its value is 0.65%.

Q: And the Water [1, 13]?
A: The Water was 0.17%.

Q: And the “Related substance (total impurities)” value [1, 14]?
A: The value was 0.65%.

Q: And the Water [1, 14]?
A: The Water was 0.17%.

Q: And the “Related substance (total impurities)” value [1, 15]?
A: Its value is 0.65%.

Q: What about the Water [1, 15] of the same compound?
A: The Water was 0.16%.

Q: What about the “Related substance (total impurities)” value [1, 16] of the same compound?
A: The value was 0.63%.

Q: What about the Water [1, 16] of the same compound?
A: Its Water is 0.16%.

Q: And the “Related substance (total impurities)” value ([1]; Illumination, 10 days)?
A: Its value is 0.64%.

Q: And the Water ([1]; Illumination, 10 days)?
A: The Water was 0.16%.

Q: What about the “Stability at high humidity, at high temperature or under illumination” value ([1]; summary of Table 2) of the same compound?
A: The value was “good stability”.

Q: With `Cc1[nH]c(C(=O)C(=O)N[C@@H](C)C(F)(F)F)c(C)c1C(=O)Nc1ccc(F)c(C#N)c1` [Compound of formula I, (S)-N-(3-cyano-4-fluorophenyl)-2,4-dimethyl-5-(2-oxo-2-((1,1,1-trifluoropropan-2-yl)amino)acetyl)-1H-pyrrol-3-formamide] as the compound, how does the “Human liver microsomes Residual content after 60 min” value [2] read?
A: Its value is 99%.

Q: What about the EC50 (HBV DNA in HepAD38 cells) of the same compound?
A: The EC50 was 24 nM.

Q: And the EC50 [3]?
A: The EC50 was 17.4 nM.

Q: And the F [4]?
A: Its F is 100%.

Q: What about the Binding rate ([5]; 1 μM) of the same compound?
A: Its Binding rate is 94.0%.

Q: And the Binding rate ([5]; 10 μM)?
A: Its Binding rate is 93.9%.

Q: And the Binding rate ([6]; 1 μM)?
A: Its Binding rate is 90.2%.

Q: What about the Binding rate ([6]; 10 μM) of the same compound?
A: Its Binding rate is 90.5%.

Q: And the Binding rate ([7]; 1 μM)?
A: The Binding rate was 97.3%.

Q: What about the Binding rate ([7]; 10 μM) of the same compound?
A: Its Binding rate is 97.3%.

Q: And the Binding rate ([8]; 1 μM)?
A: Its Binding rate is 95.0%.

Q: And the Binding rate ([8]; 10 μM)?
A: Its Binding rate is 95.3%.

Q: What about the “Mouse liver microsomes Residual content after 60 min” value [9] of the same compound?
A: The value was 96%.

Q: And the Binding rate ([10]; 1 μM)?
A: The Binding rate was 85.4%.

Q: And the Binding rate ([10]; 10 μM)?
A: The Binding rate was 85.5%.

Q: What about the “Rat liver microsomes Residual content after 60 min” value [11] of the same compound?
A: Its value is 99%.

Q: What about the CC50 (HepG2.2.15 cells) of the same compound?
A: The CC50 was greater than 100000 nM.
